Patent US11376242B2, “Methods and compositions for treating obesity and/or diabetes and for identifying candidate treatment agents” (The J. David Gladstone Institutes, a testamentary trust …, priority 2016, dated 2022)

How the values were obtained:
[1] = system: tentative ClpP effectors (Trap1, ClpX, LRPPRC, LonP, and OAT); test: Western blot of tentative ClpP effectors in liver mitochondrion lysates from treated HFD-fed mice; assay type: in vivo, mouse; details: HFD-fed WT mice, vs vehicle-treated (FIG. 32 right panel)
Procedure: (§1) Western blot. Tissues or cells were lysated in low-detergent buffer (50 mM Tris/HCl, pH 8.0, 150 mM NaCl, 0.1% SDS, 0.5% Nonidet P-40, 0.5% sodium deoxycholate) with a mixture of protease inhibitors. Phosphatase inhibitors were also included in the lysate buffer. The lysates were centrifuged at 13,000 rpm for 10 min to remove the pellets. SDS-PAGE was performed with a NuPAGE bis-tris system from Invitrogen, following the vendor's protocol. A standard western blot protocol was used with IRDye-labeled secondary antibodies (Li-cor). A Li-cor image system was used to scan the western blot images.
(§2) The in-vivo analysis of Example 9 is continued, with collection of the blood and multiple organs (liver/muscle/brain) at day 9 of A2-32-01 injection. Mitochondria are isolated from mouse liver and ClpP activity is tested using peptide substrates, e.g., as described herein. Western blot analysis is performed to detect ClpP substrate levels.
(§3) The in-vivo analysis described in Examples 9 and 10 was continued in accordance with the experimental protocol shown in FIG. 30.

[2] = system: ClpP substrate protein levels in mouse MEF cells; test: Western blot analysis of ClpP substrates in MEF cells treated with ClpP inhibitors; assay type: cell-based; details: 10 μM in OPTI-MEM twice a day for 2 days (48 hr); wild type mouse MEF cells; western blot (FIGS. 24 and 25)
Procedure: as §1
(§4) Wild type mouse MEF cells were seeded at 200,000 cells per well at 6 well plates the day before treatment. Cells were treated with the small molecule ClpP inhibitors A2-32-01, AV167, and AV179 (described previously herein) at 10 μM in OPTI-MEM twice a day for 2 days (48 hr). For each treatment, the old medium will be removed and fresh medium added to the wells. After 48 hr treatment, the cells were harvested for western blot analysis or qPCR assay of ClpP substrates.

[3] = system: high fat diet (HFD)-induced obesity and diabetes mouse models; test: In vivo treatment in high fat diet (HFD)-induced obesity and diabetes mouse model
Description: Animals. All mice were maintained on a 12-h light/dark cycle in a pathogen-free animal facility. Mice were separately housed by their genotypes for all metabolic studies. For high-fat diet (HFD)-induced obesity studies, animals were fed a HFD (21% by weight, 42% kcal from fat, 0.2% total cholesterol; TD.01064, Harlan-Teklad) for specified periods. Anesthesia was induced with isoflurane (survival procedures) or with avertin (terminal procedures). All procedures were approved by the UCSF Animal Research Committee and followed NIH guidelines. Animal sample sizes for different assays were chosen based on previous literature. Animals were grouped according to genotype; no randomization was used. For all behavior tests, all animal IDs were blinded to tester. Testers were not blinded for other assays.
(§5) Measurement of blood glucose and plasma insulin. Blood glucose was measured with a glucometer and glucose test strips (Free Style Lite). Plasma insulin was quantified with an insulin Elisa kit (Crystal Chem).
(§6) Glucose, insulin, and pyruvate tolerance tests. Glucose, insulin, and pyruvate tolerance tests were performed by intraperitoneal injection of glucose (2 g/kg), insulin (0.5 units/kg) or pyruvate (2 g/kg) after an overnight fast for glucose and pyruvate or a 4-h fast for insulin. Blood glucose levels were measured before injection and at different time points after injection. To assess glucose-stimulated insulin release, mice fasted overnight (for 16 h) and were then injected intraperitoneally with glucose (2 g/kg). Blood samples were collected from tail veins before injection and at different time points after injection.
(§7) Histological analysis. Tissues (liver, visceral adipose, gastrocnemius muscle, interscapular brown adipose, and pancreas) were fixed in 4% paraformaldehyde (pH 7.4) overnight, embedded in paraffin, and serially sectioned at 7-8 μm. Standard haematoxylin and eosin staining was performed.
7-9 month old WT female (20 mice), were fed with high fat diet for 3 weeks. Body weight change and blood glucose/plasma insulin levels in response to HFD were measured. At the beginning of the 4th week, for treatment group, A2-32-01 was injected peritoneally twice daily at 300 mg/kg for 8 days. For the control group, corn oil (vehicle) was injected. The mice were maintained on HFD. The body weight change was followed every day. At the 8th day of A2-32-01 injection, blood glucose levels were measured, and a glucose tolerance test was applied to measure insulin sensitivity.
as §3

ClpP [4] = molecular target: T1, ClpP (Mus musculus, UniProt O88696); test: ClpP activity in liver mitochondria lysates from treated db/db mice; assay type: in vivo; details: vs vehicle (FIG. 35 panel E)
T1 construct: ClpP activity was lower in liver mitochondrion lysates from A2-32-01-treated mice compared to those from vehicle-treated mice; from tissue; host or cells: liver mitochondria of HFD-fed wild-type mice dosed in vivo with A2-32-01
T1 sequence (O88696 53-272): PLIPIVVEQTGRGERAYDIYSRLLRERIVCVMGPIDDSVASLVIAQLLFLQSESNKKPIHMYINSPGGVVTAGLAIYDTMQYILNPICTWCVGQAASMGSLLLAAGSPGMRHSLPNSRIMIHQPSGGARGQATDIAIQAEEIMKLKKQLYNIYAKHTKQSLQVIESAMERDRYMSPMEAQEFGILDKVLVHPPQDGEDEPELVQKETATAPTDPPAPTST

ClpP [5] = molecular target: T1, ClpP; test: ClpP activity in liver mitochondrion lysates from treated HFD-fed mice; assay type: in vivo; details: HFD-fed WT mice; vs vehicle-treated (FIG. 32 left panel)
Procedure: as §2, §3

[6] = system: mRNA level of these genes in mouse MEF cells; test: qPCR assay of ClpP substrates in MEF cells treated with ClpP inhibitor; assay type: cell-based; details: 10 μM twice a day for 2 days (48 hr), qPCR (FIG. 26)
Procedure: as §4

[7] = system: db/db mice (a model of obesity, diabetes, and dyslipidemia); test: In vivo treatment of db/db mice; parameters: species or system mouse
Procedure: as §5, §6, §7

[8] = WT mice on HFD, H&E and oil red staining, vs vehicle (FIG. 33)
[9] = H&E and oil red staining, vs vehicle (FIG. 36)

## C=CCCCCCCC[C@H]1C(=O)O[C@@H]1CCc1cccnc1 (racemic) [A2-32-01, (3RS,4RS)-3-(non-8-en-1-yl)-4-(2-(pyridin-3-yl)ethyl)oxetan-2-one]
[1]
  levels of tentative ClpP effectors (Trap1, ClpX, LRPPRC, LonP, and OAT) in liver mitochondrion lysates: higher
[2]
  ClpP substrate protein levels: increased
[3]; 300 mg/kg peritoneally twice daily, day 2 through day 7, HFD-fed WT female mice, vs vehicle control (FIG. 28)
  body weight: significant decrease
[3]; 300 mg/kg peritoneally twice daily, day 8, HFD-fed WT mice, vs vehicle control (FIG. 29)
  insulin sensitivity (glucose tolerance test): significant improvement
[3]; Example 11, HFD-fed WT mice, vs vehicle (FIG. 31 right panel)
  insulin sensitivity (glucose tolerance tests): increased
[3]; Example 11, mice on HFD, vs vehicle-treated (FIG. 31 left panel)
  body weight: significantly decreased
[3]; [8]
  lipid accumulation in liver cells: lowered
  morphology of liver cells: restored normal morphology
ClpP [4]
  ClpP activity in liver mitochondria lysates: lower
ClpP [5]
  ClpP activity in liver mitochondrion lysates: lower
[6]
  mRNA level of ClpP substrate genes: remained unchanged
[7]; [9]
  lipid accumulation in liver cells: lowered
  morphology of liver cells: restored normal morphology
[7]; at the end of the treatment, vs vehicle (FIG. 34 panel B)
  body weight: significantly decreased
[7]; vs vehicle (FIG. 35 panel C)
  insulin sensitivity (glucose tolerance tests): increased
[7]; vs vehicle (FIG. 35 panel D)
  fasting blood glucose levels: significantly lower
